Data reported in patent EP0457908A1, “HYDROCHLORIDE 2,3,3a,4,5,6-HEXAHYDRO-8-CYCLOHEXYL-1H-PYRAZINO (3,2,1-j,k)CARBAZOL, METHOD OF OBTAINING IT AND A PHARMACEUTICAL PREPARATION OF ANTIDEPRESSIVE ACTION BASED ON IT” (priority 1989, dated 1991).
Where a name gives a salt, the structure may show the parent alone.

Tests used:
white mice [1] = experiment: Porsolt's swimming behaviour test (duration of immobilization); format: in vivo; details: for Duration of immobilization, %: distilled water = 100
Procedure: The effect of the compound according to the present invention on the duration of immobilization in Porsolt's swimming behaviour test (Porsolt et al., 1977) in experiments on white mice of both sexes with a mass of 16-18 g. […] Sixty minutes after the last (or a single) administration of the preparations, the mice were placed into cylinders (10 cm diameter, 25 cm height) filled with water to 6 cm. The temperature of water was 21-22 °C. […] The number and duration of all stops in swimming (immobilization) over the observation period were recorded.

white rats = experiment: Stereotypy induced by d,l-amphetamine; format: in vivo; details: distilled water = 100
Procedure: To evaluate the influence on stereotypy, the experiments were carried out on white rats of both sexes with a mass of 100-150 g. […] Stereotypy was assessed in points of from to 3 (after Janssen et al., 1967).

male white mice = experiment: Hyperlocomotion induced by d,l-amphetamine; format: in vivo; details: 10-20 minutes after d,l-amphetamine 2.5 mg/kg intraperitoneally, distilled water 1,924.5±177.6
Procedure: The influence on hyperlocomotion induced by d,l-amphetamine was studied in experiments on male white mice with a mass of 20-22 g.
The locomotive activity of the mice was recorded 10-20 minutes after administration of d,l-amphetamine for 10 minutes.

cats = experiment: Bioelectrical activity of the brain (electroencephalogram), cats; format: in vivo; details: for effect on the electroencephalogram: dose and species not given
Source text: The study of the effect on the bioelectrical activity of the brain was effected in acute experiments using 8 consious cats immobilized with diplacin with a mass of 2.5-3.4 kg under conditions of a controlled breathing and 25 rabbits with a mass of 2.6-3.1 kg with chronically implanted electrodes. Recorded on an electroencephalograph was an electroencephalogram of the sensomotor, parietal and visual regions of the cerebral cortex in cats, plus that of the reticular formation of the midbrain, dorsal hippocamp and amygdala in rabbits.

white mice [2] = experiment: Enhancement of the effect of 5-hydroxytryptophane (head shaking); format: in vivo; details: Mus musculus, po, 25 min; orally, 60 minutes prior to 5-hydroxytryptophane 50 mg/kg intraperitoneally; read 25 minutes after; read-out: ED₅₀, the dose at which head shaking were noticed in 50% of the animals
Procedure: The compound according to the present invention was tasted for the exciting effect of 5-hydroxytryptophane (head shaking).
The compound according to the present invention in the doses of 1.0, 2.5, 5.0 and 10 mg/kg was administered orally 60 minutes prior to an intraperitoneal administration of 5-hydroxytryptophane (50 mg/kg).

[3] = Pharmacokinetics: penetration into and stay in the brain tissues; details: in vivo
male rats = experiment: Conditional reflex of passive avoidance after amnesia (antiamnestic effect); format: in vivo; details: for Number of rats, %, remained on the platform for 1 minute, 2.5 hours after administration of scopolamine (1 mg/kg hypodermally): amnesia control 10±3.3, distilled water 85±2.0; for Number of rats, %, remained on the platform for 1 minute, 1 day after electric shock: electroshock alone 14.2±3.0, distilled water 85±2.0
Procedure: Also studied was the effect of the compound according to the present invention on reproduction of the memory traces upon amnesia.
The experiments were carried out using male rats of a mass of 180-220 g.
The antiamnestic effect of the compound according to the present invention was assessed by the method of a conditional reflex of a passive avoidance with a subsequent use, as amnesic factors, of an electric shock (50 mA, 0.3 ms) through ear electrodes or scopolamine (1 mg/kg hypodermally).
The learning of the conditional reflex of a passive avoidance was effected by the "Step-down" method (Izquerdo, 1981) in an experimental unit consisting of a 30x30x40 cm chamber with an electrified floor having in its centre a plastic platform of 10x15x0.5 cm size. A rat was placed onto the platform and a latent period of its escape therefrom was recorded (in seconds). When escaping the platform onto the floor, the rat was subjected to an electric irritation on paws (0.5 mA, 10 seconds) that made it to climb the platform. The learning course took 6 sessions, each of 3 minutes duration. The conditional response was regarded as acquired if an animal remained on the platform for 1 minute.
The amnesic effect was produced immediately after learning course and 30 minutes thereafter the compound according to the present invention was administered in the doses of 1 and 3 mg/kg or (for comparison) pyracetam was administered in the doses of 100, 300, 600 and 1,000 mg/kg. The reproduction of the memory trace was assessed 24 hours after the electric shock and 2.5 hours after administration of scopolamine.

[4] = 5-days' administration, 10.0 mg/kg orally (dose from row order)
[5] = 5-days' administration, 25.0 mg/kg orally (dose from row order)
[6] = 18-days' administration, 10.0 mg/kg orally (dose from row order)
[7] = 18-days' administration, 25.0 mg/kg orally (dose from row order)
[8] = single administration, 10.0 mg/kg orally
[9] = single administration, 25.0 mg/kg orally

SMILES	Duration of immobilization, Seconds, M±m (white mice [1]; [4]) [s]	Duration of immobilization, % (white mice [1]; [4]) [%]	Duration of immobilization, Seconds, M±m (white mice [1]; [5]) [s]	Duration of immobilization, % (white mice [1]; [5]) [%]	Duration of immobilization, Seconds, M±m (white mice [1]; [6]) [s]	Duration of immobilization, % (white mice [1]; [6]) [%]	Duration of immobilization, Seconds, M±m (white mice [1]; [7]) [s]	Duration of immobilization, % (white mice [1]; [7]) [%]	Duration of immobilization, Seconds, M±m (white mice [1]; [8]) [s]	Duration of immobilization, % (white mice [1]; [8]) [%]	Duration of immobilization, % (white mice [1]; [9]) [%]	Stereotypy (tolal, for 4 measurements for 4 hours after hypodermal administration of d,l-amphetamine), % (white rats; oral dose 5.0 mg/kg) [%]	Stereotypy (tolal, for 4 measurements for 4 hours after hypodermal administration of d,l-amphetamine), % (white rats; oral dose 10.0 mg/kg) [%]	Average value of locomotor activity of a group of 5 mice for 10 minutes (male white mice; 5.0 mg/kg oral)	Average value of locomotor activity of a group of 5 mice for 10 minutes (male white mice; 10.0 mg/kg oral)	effect on the electroencephalogram (cats)	further results
CN(C)CCCN1c2ccccc2CCc2ccccc21 [Imipramine, N-(3-dimethylaminopropyl)-aminodibenzyl hydrochloride]	92 ± 5.9	59	61 ± 6.3	39	96 ± 9.8	52	66 ± 9.8	36	131 ± 5.6	88	70	200	306	1,440.3±365.2	2,024.5±221.7	synchronizing effect	
Cc1ccc2c(c1)c1c3n2CCNC3CCC1 (stereo not shown) [Pyrazidol, 2,3,3a,4,5,6-hexahydro-8-methyl-1H-pyrazino(3,2,1-j,k)-carbazole hydrochloride]	142 ± 5.7	87	116 ± 8.1	71	129 ± 8.0	70	112 ± 8.6	61	164 ± 5.9	93	82	165	210	1,440.0±380.2	1,926.0±119.9		Duration of immobilization, Seconds, M±m (white mice [1]; [9]): 144 ± 9.9 s; ED50 (white mice [2]): 20 mg/kg; effect on the electroencephalogram of the cortex and subcortical structures of the brain (cats; 1 to 5 mg/kg intravenously, species not specified): predominantly activating effect; time the drug remains in the brain tissues [3]: at most 1.5 hours
NC(=O)CN1CCCC1=O [Pyracetam]																	Number of rats, %, remained on the platform for 1 minute, 2.5 hours after administration of scopolamine (1 mg/kg hypodermally) (male rats; 100 mg/kg oral): 12±5.5%; Number of rats, %, remained on the platform for 1 minute, 1 day after electric shock (male rats; 100 mg/kg oral): 12±3.3%; Number of rats, %, remained on the platform for 1 minute, 2.5 hours after administration of scopolamine (1 mg/kg hypodermally) (male rats; 300 mg/kg oral): 13±1.6%; Number of rats, %, remained on the platform for 1 minute, 1 day after electric shock (male rats; 300 mg/kg oral): 13±4.2%; Number of rats, %, remained on the platform for 1 minute, 2.5 hours after administration of scopolamine (1 mg/kg hypodermally) (male rats; 600 mg/kg oral): 20±5.5%; Number of rats, %, remained on the platform for 1 minute, 1 day after electric shock (male rats; 600 mg/kg oral): 12±3.3%; Number of rats, %, remained on the platform for 1 minute, 1 day after electric shock (male rats; 1000 mg/kg oral): 46±6.4%
CN(C)CCC=C1c2ccccc2CCc2ccccc21 [amitryptyline, reference compound]																synchronizing effect	
